Reference: ChEMBL document CHEMBL5728519, “Compounds of formulas (VII), (VIII), (IX), (XI), (XII), (XIII), and (XIV) as muscarinic receptor 4(M4) antagonists for treating neurological diseases” (2021)
pKi: −log10 of the molar value.

Legend:
[1] = molecular target: T1, Muscarinic acetylcholine receptor M1 (Homo sapiens, UniProt P11229); assay: (§1) Binding Assay: Binding affinity (Ki) of compounds was measured by inhibition of radioligand binding to membranes from CHO cells expressing human M1, M2, M3, M4 and M5 receptors. Membranes were prepared by nitrogen cavitation and differential centrifugation as previously described (Hoare et al., Mol. Pharmacol. 2003 March; 63(3): 751-65). The radioligand employed was tritiated N-methylscopolamine, used at a concentration of 1.5 nM. A dose-response of twelve concentrations of compound was used, […]. The assay buffer was 50 mM HEPES, 100 mM NaCl, 5 mM MgCl2, 1 mM ethylenediaminetetraacetic acid, pH-adjusted to pH 7.4.
T1 sequence (P11229 whole entry): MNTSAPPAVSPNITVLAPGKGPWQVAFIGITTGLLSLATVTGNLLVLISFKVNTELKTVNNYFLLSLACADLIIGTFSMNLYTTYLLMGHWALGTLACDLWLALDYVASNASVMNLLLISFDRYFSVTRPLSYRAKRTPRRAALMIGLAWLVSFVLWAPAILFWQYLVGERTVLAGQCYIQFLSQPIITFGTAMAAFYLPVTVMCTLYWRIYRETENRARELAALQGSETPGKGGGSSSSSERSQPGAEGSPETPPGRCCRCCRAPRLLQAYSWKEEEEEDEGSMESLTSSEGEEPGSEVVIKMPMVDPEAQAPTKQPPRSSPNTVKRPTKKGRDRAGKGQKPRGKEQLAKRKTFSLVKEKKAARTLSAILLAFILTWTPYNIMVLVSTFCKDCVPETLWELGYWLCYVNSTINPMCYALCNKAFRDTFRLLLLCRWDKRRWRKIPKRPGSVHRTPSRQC

[2] = molecular target: T2, Muscarinic acetylcholine receptor M4 (Homo sapiens, UniProt P08173); assay: as §1
T2 sequence (P08173 whole entry): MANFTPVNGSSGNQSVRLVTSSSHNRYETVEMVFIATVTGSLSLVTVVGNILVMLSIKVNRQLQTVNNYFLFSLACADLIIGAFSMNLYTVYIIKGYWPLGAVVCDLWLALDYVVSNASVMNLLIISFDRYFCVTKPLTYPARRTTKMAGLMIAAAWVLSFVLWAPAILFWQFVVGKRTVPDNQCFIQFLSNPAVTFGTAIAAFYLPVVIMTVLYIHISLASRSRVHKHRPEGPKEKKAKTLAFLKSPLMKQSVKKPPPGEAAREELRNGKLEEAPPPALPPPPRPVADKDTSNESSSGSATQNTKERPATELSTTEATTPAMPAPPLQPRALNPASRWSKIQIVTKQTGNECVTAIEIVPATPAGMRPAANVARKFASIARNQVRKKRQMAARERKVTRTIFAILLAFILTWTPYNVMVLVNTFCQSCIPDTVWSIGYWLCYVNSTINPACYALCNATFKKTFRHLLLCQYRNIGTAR

| Compound | pKi [1] | pKi [2] |
| --- | --- | --- |
| C[C@@H]1CN(c2ncc(C(F)(F)F)c(N)n2)CCN1C(=O)NCCC1CCN(Cc2ccccc2)CC1 | 7.00 to 8.00 | – |
| C[C@@H]1CN(c2ncc(C(F)(F)F)cn2)CCN1C(=O)NCCC1CCN(Cc2ccccc2)CC1 | 6.00 to 7.00 | – |
| COc1ccc(N2CCN(C(=O)NCCC3CCN(Cc4ccccc4)CC3)[C@H](C)C2)cc1C#N | – | 7.00 to 8.00 |
